Tests used:
[1] = target: T1, Neuropeptide Y receptor type 2 (Homo sapiens, UniProt P49146); assay type: cell membranes, Membrane; conditions: kan-ts; note: in other assays of this panel Not Active means under 50% inhibition at 10 µM
T1 sequence (P49146 whole entry): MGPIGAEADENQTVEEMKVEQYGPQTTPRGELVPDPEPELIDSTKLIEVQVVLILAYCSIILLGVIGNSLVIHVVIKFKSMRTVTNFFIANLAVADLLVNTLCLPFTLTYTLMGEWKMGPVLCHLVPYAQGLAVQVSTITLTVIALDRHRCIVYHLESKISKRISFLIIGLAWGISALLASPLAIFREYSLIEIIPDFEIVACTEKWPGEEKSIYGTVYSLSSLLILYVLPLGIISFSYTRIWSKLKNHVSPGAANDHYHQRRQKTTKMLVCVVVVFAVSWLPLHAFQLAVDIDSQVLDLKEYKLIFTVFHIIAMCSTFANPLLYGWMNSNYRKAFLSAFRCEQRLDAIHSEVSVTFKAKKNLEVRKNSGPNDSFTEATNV

[2] = target: Mitogen-activated protein kinase 14 (Homo sapiens, UniProt Q16539); set-up: species or system Escherichia coli;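 note: inhibition of p38alpha enzyme activity in a biochemical kinase assay, with myelin basic protein serving as substrate; in other assays of this panel Not Active means under 50% inhibition at 10 µM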
Mitogen-activated protein kinase 14, sequence (Q16539 whole entry): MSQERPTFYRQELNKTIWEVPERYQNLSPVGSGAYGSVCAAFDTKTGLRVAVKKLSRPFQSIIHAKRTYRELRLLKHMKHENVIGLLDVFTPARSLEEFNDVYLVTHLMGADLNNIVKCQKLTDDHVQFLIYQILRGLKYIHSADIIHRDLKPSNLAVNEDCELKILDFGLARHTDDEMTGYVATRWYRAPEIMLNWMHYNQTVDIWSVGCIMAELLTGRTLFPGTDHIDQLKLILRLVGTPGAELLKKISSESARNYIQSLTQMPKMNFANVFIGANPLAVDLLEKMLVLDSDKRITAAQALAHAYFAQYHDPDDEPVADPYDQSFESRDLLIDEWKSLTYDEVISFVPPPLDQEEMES

[3] = target: T2, Cysteinyl leukotriene receptor 1 (Homo sapiens, UniProt Q9Y271); assay type: cell membranes, CHO-K1, Membrane; conditions: cho-k1; note: in other assays of this panel Not Active means under 50% inhibition at 10 µM
T2 sequence (Q9Y271 whole entry): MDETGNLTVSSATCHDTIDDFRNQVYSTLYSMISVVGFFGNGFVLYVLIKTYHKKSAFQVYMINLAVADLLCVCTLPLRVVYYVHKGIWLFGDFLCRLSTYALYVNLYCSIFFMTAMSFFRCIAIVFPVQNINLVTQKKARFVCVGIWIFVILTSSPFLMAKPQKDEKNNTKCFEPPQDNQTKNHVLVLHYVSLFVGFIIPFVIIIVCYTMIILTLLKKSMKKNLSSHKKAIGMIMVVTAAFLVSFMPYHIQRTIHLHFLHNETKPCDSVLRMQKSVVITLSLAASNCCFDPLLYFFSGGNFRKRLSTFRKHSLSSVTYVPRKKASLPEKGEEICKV

[4] = DRUGMATRIX: GABAA, Muscimol, Central radioligand binding (ligand: [3H] Muscimol); assay type: cell membranes, Rattus norvegicus, Wistar, Brain, Membrane; conditions: Not Active = under 50% inhibition at 10 µM
[5] = DRUGMATRIX: Potassium Channel [KATP] radioligand binding (ligand: [3H] Glyburide); assay type: cell membranes, Membrane; conditions: hit-t15; Not Active = under 50% inhibition at 10 µM
Melanocortin receptor 4 = Melanocortin receptor 4 (Homo sapiens, UniProt P32245); assay type: cell membranes, HEK293, Membrane; conditions: hek293; note: in other assays of this panel Not Active means under 50% inhibition at 10 µM
Melanocortin receptor 4, sequence (P32245 whole entry): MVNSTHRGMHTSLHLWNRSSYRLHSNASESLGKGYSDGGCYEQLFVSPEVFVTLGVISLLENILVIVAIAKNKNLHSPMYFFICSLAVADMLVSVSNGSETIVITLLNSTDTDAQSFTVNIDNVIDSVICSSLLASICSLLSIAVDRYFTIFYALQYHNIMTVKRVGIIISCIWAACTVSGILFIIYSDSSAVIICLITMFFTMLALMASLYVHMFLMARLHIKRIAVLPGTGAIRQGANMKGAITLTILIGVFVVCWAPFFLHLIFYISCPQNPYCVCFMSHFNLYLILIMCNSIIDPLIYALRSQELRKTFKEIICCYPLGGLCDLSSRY

D(4) dopamine receptor = target: T3, D(4) dopamine receptor (Homo sapiens, UniProt P21917); experiment: DRUGMATRIX: Dopamine D4.2 radioligand binding (ligand: [3H] Spiperone); assay type: cell membranes, CHO-K1, Membrane; conditions: cho-k1; Not Active = under 50% inhibition at 10 µM
T3 sequence (P21917 whole entry): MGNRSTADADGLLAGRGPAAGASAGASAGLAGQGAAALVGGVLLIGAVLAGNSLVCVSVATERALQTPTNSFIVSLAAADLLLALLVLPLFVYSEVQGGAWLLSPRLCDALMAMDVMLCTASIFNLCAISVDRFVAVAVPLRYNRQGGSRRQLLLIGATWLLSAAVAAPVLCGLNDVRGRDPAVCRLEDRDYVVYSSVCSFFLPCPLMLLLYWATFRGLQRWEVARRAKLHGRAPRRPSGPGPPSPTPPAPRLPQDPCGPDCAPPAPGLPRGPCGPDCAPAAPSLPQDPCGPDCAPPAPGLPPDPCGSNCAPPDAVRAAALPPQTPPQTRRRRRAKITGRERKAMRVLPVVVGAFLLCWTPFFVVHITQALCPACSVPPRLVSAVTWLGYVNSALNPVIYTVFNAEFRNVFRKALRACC

Mu-type opioid receptor = Mu-type opioid receptor (Homo sapiens, UniProt P35372); experiment: DRUGMATRIX: Opiate mu (OP3, MOP) radioligand binding (ligand: [3H] Diprenorphine); assay type: cell membranes, CHO-K1, Membrane; conditions: cho-k1; Not Active = under 50% inhibition at 10 µM
Mu-type opioid receptor, sequence (P35372 whole entry): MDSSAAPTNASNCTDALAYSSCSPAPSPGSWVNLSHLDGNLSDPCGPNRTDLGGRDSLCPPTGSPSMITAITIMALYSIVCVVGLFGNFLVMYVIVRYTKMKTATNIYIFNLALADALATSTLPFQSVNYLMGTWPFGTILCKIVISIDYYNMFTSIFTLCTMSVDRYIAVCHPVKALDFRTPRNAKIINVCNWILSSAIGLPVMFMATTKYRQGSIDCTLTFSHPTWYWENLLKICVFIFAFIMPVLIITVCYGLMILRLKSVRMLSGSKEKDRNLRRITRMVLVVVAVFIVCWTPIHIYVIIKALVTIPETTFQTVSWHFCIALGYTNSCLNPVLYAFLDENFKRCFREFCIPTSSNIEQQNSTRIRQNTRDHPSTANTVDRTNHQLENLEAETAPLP

Cc1c(C)c2c(c(C)c1O)CC[C@@](C)(CCC[C@H](C)CCC[C@H](C)CCCC(C)C)O2 [ALPHA-TOCOPHEROL]
Not Active: IC50 [1] | IC50 [2] | IC50 [3] | IC50 [4] | Ki [4] | IC50 [5] | Ki [5] | IC50 (Melanocortin receptor 4) | IC50 (D(4) dopamine receptor) | IC50 (Mu-type opioid receptor)

CC[C@@]1(O)C[C@H](O[C@H]2C[C@H](N(C)C)[C@H](O[C@H]3C[C@H](O)[C@H](O[C@H]4CCC(=O)[C@H](C)O4)[C@H](C)O3)[C@H](C)O2)c2c(cc3c(c2O)C(=O)c2c(O)cccc2C3=O)[C@H]1C(=O)OC [ACLARUBICIN]
Not Active: IC50 [1] | IC50 [2] | IC50 [3] | IC50 [4] | Ki [4] | IC50 [5] | Ki [5] | IC50 (Melanocortin receptor 4) | IC50 (D(4) dopamine receptor) | IC50 (Mu-type opioid receptor)

CC(=O)O[C@@]12CO[C@@H]1C[C@H](O)[C@@]1(C)C(=O)[C@H](O)C3=C(C)[C@@H](OC(=O)[C@H](O)[C@@H](NC(=O)OC(C)(C)C)c4ccccc4)C[C@@](O)([C@@H](OC(=O)c4ccccc4)[C@H]21)C3(C)C.O.O.O [DOCETAXEL]
Not Active: IC50 [1] | IC50 [2] | IC50 [3] | IC50 [4] | Ki [4] | IC50 [5] | Ki [5] | IC50 (Melanocortin receptor 4) | IC50 (D(4) dopamine receptor) | IC50 (Mu-type opioid receptor)

CC(C)CN(C[C@@H](O)[C@H](Cc1ccccc1)NC(=O)O[C@H]1CCOC1)S(=O)(=O)c1ccc(N)cc1
Not Active: IC50 [1] | IC50 [2] | IC50 [3] | IC50 [4] | Ki [4] | IC50 [5] | Ki [5] | IC50 (Melanocortin receptor 4) | IC50 (D(4) dopamine receptor) | IC50 (Mu-type opioid receptor)

C[C@](N)(Cc1ccc(O)c(O)c1)C(=O)O [METHYLDOPA]
Not Active: IC50 [1] | IC50 [2] | IC50 [3] | IC50 [4] | Ki [4] | IC50 [5] | Ki [5] | IC50 (Melanocortin receptor 4) | IC50 (D(4) dopamine receptor) | IC50 (Mu-type opioid receptor)

Nc1nc(N)nc(-c2cc(Cl)ccc2Cl)n1.O=C(O)/C=C\C(=O)O [IRSOGLADINE MALEATE]
Not Active: IC50 [1] | IC50 [2] | IC50 [3] | IC50 [4] | Ki [4] | IC50 [5] | Ki [5] | IC50 (Melanocortin receptor 4) | IC50 (D(4) dopamine receptor) | IC50 (Mu-type opioid receptor)

Nc1ncn([C@@H]2O[C@H](CO)[C@@H](O)[C@H]2O)c(=O)n1 [AZACITIDINE]
Not Active: IC50 [1] | IC50 [2] | IC50 [3] | IC50 [4] | Ki [4] | IC50 [5] | Ki [5] | IC50 (Melanocortin receptor 4) | IC50 (D(4) dopamine receptor) | IC50 (Mu-type opioid receptor)

CCCCN1CCCC[C@H]1C(=O)Nc1c(C)cccc1C [LEVOBUPIVACAINE]
Not Active: IC50 [1] | IC50 [2] | IC50 [3] | IC50 [4] | Ki [4] | IC50 [5] | Ki [5] | IC50 (Melanocortin receptor 4) | IC50 (D(4) dopamine receptor) | IC50 (Mu-type opioid receptor)

CC(C)C(=O)Nc1ccc([N+](=O)[O-])c(C(F)(F)F)c1 [FLUTAMIDE]
Not Active: IC50 [1] | IC50 [2] | IC50 [3] | IC50 [4] | Ki [4] | IC50 [5] | Ki [5] | IC50 (Melanocortin receptor 4) | IC50 (D(4) dopamine receptor) | IC50 (Mu-type opioid receptor)

CC(C)[C@H]1C(=O)N2CCC[C@H]2[C@]2(O)O[C@](NC(=O)[C@@H]3C=C4c5cccc6[nH]cc(c56)C[C@H]4N(C)C3)(C(C)C)C(=O)N12 [ERGOCORNINE]
Not Active: IC50 [1] | IC50 [2] | IC50 [3] | IC50 [4] | Ki [4] | IC50 [5] | Ki [5] | IC50 (Melanocortin receptor 4) | IC50 (D(4) dopamine receptor) | IC50 (Mu-type opioid receptor)

CC(C)(Oc1ccc(Cl)cc1)C(=O)O [CLOFIBRIC ACID]
Not Active: IC50 [1] | IC50 [2] | IC50 [3] | IC50 [4] | Ki [4] | IC50 [5] | Ki [5] | IC50 (Melanocortin receptor 4) | IC50 (D(4) dopamine receptor) | IC50 (Mu-type opioid receptor)

CCCC1O[C@@H]2C[C@H]3[C@@H]4CCC5=CC(=O)C=C[C@]5(C)[C@H]4[C@@H](O)C[C@]3(C)[C@]2(C(=O)CO)O1 (stereo not given in full) [BUDESONIDE]
Not Active: IC50 [1] | IC50 [2] | IC50 [3] | IC50 [4] | Ki [4] | IC50 [5] | Ki [5] | IC50 (Melanocortin receptor 4) | IC50 (D(4) dopamine receptor) | IC50 (Mu-type opioid receptor)

O=C(CCCN1CC=C(n2c(=O)[nH]c3ccccc32)CC1)c1ccc(F)cc1 [DROPERIDOL]
Not Active: IC50 [1] | IC50 [2] | IC50 [3] | IC50 [4] | Ki [4] | IC50 [5] | Ki [5] | IC50 (Melanocortin receptor 4) | IC50 (D(4) dopamine receptor) | IC50 (Mu-type opioid receptor)

Clc1cccc(Cl)c1NC1=NCCN1 [CLONIDINE]
Not Active: IC50 [1] | IC50 [2] | IC50 [3] | IC50 [4] | Ki [4] | IC50 [5] | Ki [5] | IC50 (Melanocortin receptor 4) | IC50 (D(4) dopamine receptor) | IC50 (Mu-type opioid receptor)

Cc1onc(O)c1CC(N)C(=O)O (racemic) [(R,S)-AMPA]
Not Active: IC50 [1] | IC50 [2] | IC50 [3] | IC50 [4] | Ki [4] | IC50 [5] | Ki [5] | IC50 (Melanocortin receptor 4) | IC50 (D(4) dopamine receptor) | IC50 (Mu-type opioid receptor)

CCOC(=O)C1=C(COCCN)NC(C)=C(C(=O)OC)C1c1ccccc1Cl (stereo not given) [AMLODIPINE]
Not Active: IC50 [1] | IC50 [2] | IC50 [3] | IC50 [4] | Ki [4] | IC50 [5] | Ki [5] | IC50 (Melanocortin receptor 4) | IC50 (D(4) dopamine receptor) | IC50 (Mu-type opioid receptor)

From ChEMBL document CHEMBL1909046, “DrugMatrix in vitro pharmacology data”
